We go through three compounds from patent US9301951B2 (Ardelyx, Inc., priority 2010, dated 2016).

Bounds are passed on as bounds.

Series [1] addresses T1, rat NaP2b (SLC34A2) (Rattus norvegicus, UniProt Q9JJ09).
T1 construct: host or cells: HEK293
T1 sequence (Q9JJ09 1-695): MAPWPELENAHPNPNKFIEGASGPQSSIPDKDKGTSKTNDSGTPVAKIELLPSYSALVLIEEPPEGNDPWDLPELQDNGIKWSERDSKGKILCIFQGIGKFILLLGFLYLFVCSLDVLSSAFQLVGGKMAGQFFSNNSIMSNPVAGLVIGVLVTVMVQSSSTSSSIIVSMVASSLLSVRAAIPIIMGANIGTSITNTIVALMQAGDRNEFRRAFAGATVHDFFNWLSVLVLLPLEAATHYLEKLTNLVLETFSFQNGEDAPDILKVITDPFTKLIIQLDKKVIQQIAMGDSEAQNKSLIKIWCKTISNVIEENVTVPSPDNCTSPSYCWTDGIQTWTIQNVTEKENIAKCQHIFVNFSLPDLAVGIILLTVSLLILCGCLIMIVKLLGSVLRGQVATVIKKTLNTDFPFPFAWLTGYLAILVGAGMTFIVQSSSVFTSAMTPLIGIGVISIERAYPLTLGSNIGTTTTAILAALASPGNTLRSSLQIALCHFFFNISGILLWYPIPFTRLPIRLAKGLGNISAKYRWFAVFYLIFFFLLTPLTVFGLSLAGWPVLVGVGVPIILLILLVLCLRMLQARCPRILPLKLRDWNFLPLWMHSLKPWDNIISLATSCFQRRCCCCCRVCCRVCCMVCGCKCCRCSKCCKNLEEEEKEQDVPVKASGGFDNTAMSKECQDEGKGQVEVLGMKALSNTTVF
Nature of the series: Inhibition of NaP2b-mediated Pi (33P) uptake in transfected HEK293 cells, rat NaP2b. In kind it is cell-based. The settings on record: HEK293 cells transfected with rat NaP2b, 100 uM phosphate, 0.1 nM to 30 uM, read-out: pIC50 range for rat Nap2b (converted). In short, it runs like this:
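HEK293 cells transiently transfected with rat NaP2b; 33P-phosphate uptake measured in sodium or choline buffer (100 uM KH2PO4, PiT-silencing agent, pH 7.4) with compound at twelve concentrations, 0.1 nM–30 uM, in duplicate. Lysed cells counted by scintillation; pIC50 derived from concentration-response.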

Series [2] has as its system Sprague-Dawley rats. As to the kind of experiment: In vivo co-dosing in chow (urine P out / P consumed). The settings on record: feed or water; rat; drug in chow, nominal 100 mg/kg/day (mean dose per line in table); urine 24-96 h; read-out: Mean % inhibition Urine Pout/P consumed. An excerpt: Male, 7-week-old Sprague-Dawley rats (Charles-River laboratories international, Hollister, Calif.) were allowed to acclimate for a minimum of 3 days. The experiment was initiated by switching animals to a synthetic diet (0.6% phosphorus and 0.6% calcium, Harlan Teklad TD.84122) for four days. After this time, the animals were placed into metabolic cages for daily monitoring of food and water consumption, as well as urine and fecal collections. Test compounds were incorporated into the powdered diet listed above containing 3% chocolate flavoring (w/w, BioServ #7345) at 1.3 mg test compound per gram of diet to achieve an average daily nominal dose of 100 mg/kg/day. The actual dose received by each animal was later determined by measuring prepared diet consumption and body weight. Urine samples were collected in three daily periods from 24-48, 48-72, and 72-96 hours of drug dosing. […] Phosphorus levels in the urine were determined by anion exchange chromatography using a Dionex ICS-3000 ion chromatography system. […] Elution of urine phosphate ions was monitored via conductivity detector and reported as ppm relative to a standard ion solution containing phosphate. Daily urinary P output relative to the P consumed in the prepared diet for each animal was calculated. […] The differences between the means of control and treated groups were evaluated by t tests. […]

Series [3] concerns the target T2, human NaP2b (SLC34A2) (Homo sapiens, UniProt O95436).
T2 construct: host or cells: HEK293
T2 sequence (O95436 1-690): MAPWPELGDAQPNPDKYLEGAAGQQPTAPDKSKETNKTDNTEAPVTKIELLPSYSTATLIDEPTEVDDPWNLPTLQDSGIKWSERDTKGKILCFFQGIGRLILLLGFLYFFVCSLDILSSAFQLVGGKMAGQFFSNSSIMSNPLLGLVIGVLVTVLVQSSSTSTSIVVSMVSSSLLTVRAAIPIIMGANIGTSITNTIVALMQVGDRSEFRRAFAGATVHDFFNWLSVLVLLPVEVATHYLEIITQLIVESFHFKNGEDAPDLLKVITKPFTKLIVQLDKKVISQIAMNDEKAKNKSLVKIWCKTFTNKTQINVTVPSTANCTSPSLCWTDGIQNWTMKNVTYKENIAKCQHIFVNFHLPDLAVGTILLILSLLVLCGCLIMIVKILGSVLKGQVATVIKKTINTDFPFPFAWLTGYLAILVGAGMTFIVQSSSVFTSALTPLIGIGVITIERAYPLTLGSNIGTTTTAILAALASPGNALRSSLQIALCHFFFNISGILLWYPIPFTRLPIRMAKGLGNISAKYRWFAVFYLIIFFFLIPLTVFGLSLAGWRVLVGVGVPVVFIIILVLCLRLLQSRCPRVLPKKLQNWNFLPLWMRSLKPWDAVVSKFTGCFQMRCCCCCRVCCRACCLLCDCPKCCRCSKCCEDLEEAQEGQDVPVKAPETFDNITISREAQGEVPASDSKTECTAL
Nature of the series: Inhibition of NaP2b-mediated Pi (33P) uptake in transfected HEK293 cells, human NaP2b. In kind it is cell-based. The settings on record: HEK293 cells transfected with human NaP2b, 100 uM phosphate, 0.1 nM to 30 uM, read-out: pIC50 range for human NaP2b (converted). In outline:
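HEK293 cells transiently expressing mutated human NaP2b, with PiT transport pharmacologically silenced; sodium-dependent 33P-phosphate uptake (100 uM KH2PO4, pH 7.4) measured over 3–30 min at room temperature by scintillation. Twelve compound concentrations from 0.1 nM to 30 uM, in duplicate; pIC50 calculated.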

For series [4] the following is noted: human absorption; cited from earlier work.
Series [5] in a line: Determination of compound Cmax and AUC in plasma after oral gavage. The series is classed as in vivo, rat. The conditions noted are these: Sprague-Dawley rats, actual oral dose 3-15 mg/kg, 0.5-4 h. The procedure:
Sprague-Dawley rats were orally gavaged with test article at a nominal dose of 2.5 or 10 mg/kg and blood was collected at 0.5, 1, 2 and 4 h. Blood samples were processed to plasma using K2EDTA as an anticoaglulant. Plasma samples were treated with acetonitrile containing an internal standard, precipitated proteins removed by centrifugation. Supernatants were analyzed by LC-MS/MS and compound concentrations were determined by interpolation from a standard curve prepared in plasma. All compounds were orally dosed at the dosage shown, and pharmacokinetic parameters determined.

As for `CN(CCN1CCOCC1)C(=O)c1cccc(C(=O)Nc2ccc(N3CCCCC3)cc2-c2cc(C(=O)N[C@H]3CCCc4ccccc43)ccn2)c1` [Example 37, (S)—N1-Methyl-N1-(2-morpholinoethyl)-N3-(4-(piperidin-1-yl)-2-(4-((1,2,3,4-tetrahydronaphthalen-1-yl)carbamoyl)pyridin-2-yl)phenyl)isophthalamide], the IC50 in series [1] and in series [3] was under 1000 nM each time. In addition, in series [2], the inhibition in vivo at 100 mg/kg/day was at most 10%.

Consider `Cc1cc(=O)n(-c2ccccc2)n1C` [phenazone], for which the “% FA” value in series [4] is on record as 97%.

Consider “(S)-2-(5-(diethylamino)-2-(3-(27-oxo-2,5,8,11,14,17,20,23,30,33,36,39-dodecaoxa-42-thia-26-azatritetracontan-43-yl)benzamido)phenyl)-N-(1,2,3,4-tetrahydronaphthalen-1-yl)isonicotinamide [Example 157.1]”, for which, in series [5], the AUC was under 30 ng·h/mL and the Cmax is on record as under 10 ng/mL.
